Marks after values point to notes of the source that are not given here.
System: Escherichia coli septic shock in dogs
Test: In-vivo model of Escherichia coli septic shock in dogs
Parameters: species or system dog
Conditions: for PCO2: arterial; for Urine-volume: per hour
Excerpt: We have thus far studied 5 dogs in septic shock in which ethyl gallate was infused. We have compared the results obtained in this group with those found in septic animals (n=5) in which this treatment was not given. In addition, in preliminary experiments, we have looked at the effect of ethyl gallate infusion on hemodynamics in non-septic animals (n=3). In a time control non-septic group in which placebo (normal saline solution) was given, we have studied one animal.
The E coli model used in the studies was identical to that previously described (2). Sepsis was induced by the intravenous infusion of 10^10 colony forming units of live E coli (designation 011:B4). The bacteria were suspended in normal saline solution and were given over 0.5 hour. A constant infusion of approximately 5×10^9 colony forming units/hour of E coli was then maintained over the duration of the two studies.
The animals (16-24 kg) were initially anesthetized with thiopental sodium (20 mg/kg, intravenously) and constantly infused with sufentanil citrate (1-3 μg/min) and midazolam (5 μg/kg/min) (2). Drug rates were adjusted as required to abolish the palpebral reflex. The animals were placed in the supine position; the trachea was […] with an endotracheal tube; and the lungs were mechanically ventilated at a tidal volume of 20 ml/kg. The ventilator rate was initially set to maintain blood pH at approximately 7.35. The rate was increased as necessary to reverse the metabolic acidosis that developed over the course of the study. Approximately 100% oxygen was inspired, so that hypoxemia would not affect the results of the study.
Under sterile conditions and by percutaneous techniques (Arrow International, Reading, Pa.) (2), a thermister tipped catheter was advanced from the right jugular vein into the pulmonary artery to measure mean pulmonary arterial pressure (Ppa), mean pulmonary capillary wedge pressure (Pwp), mean right atrial pressure (Rap), and thermodilution cardiac output (CO) (Edwards Lifesciences, Irvine, Calif.). Another introducer was placed into the left jugular vein for administration of intravenous saline solution, the E coli infusion, and the treatment or placebo drugs. A catheter was placed into the bladder through the urethra to measure urine output over the course of the study. A polyethylene catheter was percutaneously placed into the femoral artery to measure MAP and to obtain samples of blood for arterial PO2, PCO2, pH, hematocrit (Hct), serum electrolytes and creatinine, liver function tests, and lactate concentrations. The laboratory tests were performed by the clinical laboratories at the Health Sciences Centre.
All vascular catheters were connected to transducers (Cobe, Argon Medical Devices Inc, Athens, Tex.), were referenced relative to the left atrium, and were connected to a chart recorder (Astro-Med, W Warwick, R.I.) (2). Heart rate (HR) was measured from the recorder tracing. Stroke-volume (SV) was calculated as CO/HR. Systemic vascular resistance (SVR) was calculated from [(MAP−Pra)/CO]*80.
Stroke work (SW) was our primary index of cardiac performance and the primary hemodynamic endpoint chosen (2). At constant preload, SW reflects both the decrease in afterload and the change in contractile function that accompany sepsis. SW was determined at approximately the same Pwp at each measurement interval. The baseline Pwp usually averaged ≈8-10 mmHg, and normal saline solution was given as necessary to maintain Pwp constant over the experimental period. SW was calculated from SV*(MAP−Pwp).
The purpose of this study was to determine whether ethyl-gallate could reverse the fall in MAP that occurs in this sepsis model. Ethyl gallate was infused after MAP pressure fell approximately 30 to 40% from the baseline value in which this decline in MAP was not responsive to volume infusion to return Pwp to the baseline value (septic shock condition). […]

[1] = septic dogs n = 5, 3 hrs post treatment
[2] = septic dogs n = 5, 5 hrs post treatment
[3] = septic dogs n = 5, Baseline (before sepsis and treatment)
[4] = septic dogs n = 5, septic shock (before treatment)
[5] = septic dogs n = 5, 1 hr post treatment
[6] = septic dogs n = 5, 2 hrs post treatment
[7] = septic dogs n = 5, 4 hrs post treatment
[8] = septic dogs, ethyl-gallate treated group

CCOC(=O)c1cc(O)c(O)c(O)c1 [ethyl gallate]
duration of increase in mean arterial pressure after bolus (2 gram intravenous bolus after 5 hours of septic shock, one animal): over 75 minutes
PCO2 [1]: 21 ± 2*# mmHg
PCO2 [2]: 19 ± 2* mmHg
PCO2 [3]: 29 ± 4 mmHg
PCO2 [4]: 27 ± 4 mmHg
duration of increase in MAP after bolus (bolus after the study was completed, one animal of placebo group): over 1 hr
time in which infusion increased arterial pressure (individual septic dog, FIG. 2): approximately 18 minutes
Urine-volume [5]: 67 ± 58 mL
Urine-volume [6]: 42 ± 19 mL
Urine-volume [1]: 42 ± 19 mL
Urine-volume [7]: 36 ± 26 mL
Urine-volume [2]: 36 ± 26 mL
Urine-volume [4]: 45 ± 34 mL
dogs that died over the course of the study (septic dogs): None
HR [5]: 116 ± 47 beats/min
Ppa [5]: 18 ± 4.8 mmHg
Rap [5]: 8 ± 1.3 mmHg
HR [6]: 111 ± 33 beats/min
Ppa [6]: 18 ± 5 mmHg
Rap [6]: 8.6 ± 1.7 mmHg
ALT [1]: 210 ± 90 IU
AST [1]: 268 ± 162 IU
Alk P'tase [1]: 54 ± 36 international units
Arterial pH [1]: 7.21 ± .08*
HR [1]: 107 ± 34 beats/min
LD [1]: 253 ± 172* IU
Platelets [1]: 100 ± 37* ×10^9/L
Ppa [1]: 21 ± 6 mmHg
Rap [1]: 8.8 ± 0.8 mmHg
WBC [1]: 2.1 ± 1.9 ×10^9/L
bilirubin [1]: 11 ± 4.5* mmol/L
chloride [1]: 130 ± 6* mmol/L
glucose [1]: 4.4 ± 1.5 mmol/L
sodium [1]: 152 ± 5 mmol/L
total CO2 [1]: 14 ± 2* mmol/L
HR [7]: 115 ± 36 beats/min
Ppa [7]: 21 ± 9 mmHg
Rap [7]: 9.2 ± 1.1 mmHg
ALT [2]: 236 ± 56 IU
AST [2]: 337 ± 141 IU
Alk P'tase [2]: 91 ± 39* international units
Arterial pH [2]: 7.14 ± .06*
HR [2]: 110 ± 34 beats/min
LD [2]: 335 ± 175* IU
Platelets [2]: 74 ± 21* ×10^9/L
Ppa [2]: 23 ± 7* mmHg
Rap [2]: 8.6 ± 1.3 mmHg
WBC [2]: 2.64 ± 2.3 ×10^9/L
chloride [2]: 130 ± 7* mmol/L
glucose [2]: 3.6 ± 2.2 mmol/L
sodium [2]: 153 ± 6 mmol/L
total CO2 [2]: 14 ± 2* mmol/L
ALT [3]: 52 ± 20 IU
AST [3]: 18 ± 4 IU
Alk P'tase [3]: 31 ± 11 international units
HR [3]: 59 ± 8* beats/min
LD [3]: 26 ± 4 IU
Platelets [3]: 196 ± 18 ×10^9/L
Ppa [3]: 16 ± 1.3 mmHg
Rap [3]: 9 ± 1.2 mmHg
WBC [3]: 3.2 ± 1.9 ×10^9/L
chloride [3]: 118 ± 3 mmol/L
glucose [3]: 5.5 ± 0.3 mmol/L
sodium [3]: 151 ± 2 mmol/L
total CO2 [3]: 21 ± 3 mmol/L
ALT [4]: 139 ± 116 IU
AST [4]: 137 ± 130 IU
Alk P'tase [4]: 41 ± 27 international units
Arterial pH [4]: 7.26 ± .06*
HR [4]: 145 ± 33 beats/min
LD [4]: 128 ± 82 IU
Platelets [4]: 117 ± 27* ×10^9/L
Ppa [4]: 15 ± 2.3 mmHg
Rap [4]: 7 ± 1.3 mmHg
WBC [4]: 1.3 ± 0.7 ×10^9/L
chloride [4]: 123 ± 8*+ mmol/L
glucose [4]: 5.3 ± 0.3 mmol/L
sodium [4]: 150 ± 7+ mmol/L
total CO2 [4]: 18 ± 2* mmol/L
urine output (septic dogs, between the two groups): no difference
mean arterial pressure (MAP) (septic dogs, by 1 hour post-treatment, remained over the course of study): returned to the baseline value
serum haemoglobin concentration (septic dogs, end of the study, vs non-ethyl gallate treated group): higher
time post infusion by which increase in MAP was evident (septic dogs, ethyl gallate infusion): ≤ 20 min
cardiac output (CO) [8]: did not fall
stroke volume (SV) [8]: did not fall
stroke work (SW) (septic dogs, over the 5 post-treatment measurement intervals, vs non-treated group): generally higher
serum creatinine (septic dogs, over the course of the study): decreased
creatine kinase (CK), evidence of rhabdomyolysis (septic dogs, vs non-treated group): less
normal saline required to maintain Pwp at the baseline value (septic dogs, vs 4.7±0.8 L in non-treated group, P<0.05): 3.38 ± 0.8 L
systemic vascular resistance (SVR) (septic dogs, vs septic shock condition and vs non-treated septic group): significantly increased

Reference: patent US20120277312A1, “Ethylgallate and Related Compounds as a Treatment for Sepsis and Septic Shock” (priority 2009, published 2012)
